In patent publication US20260184675A1, “CHIRAL ISOMERIC SULFITE COMPOUND AND APPLICATION THEREOF” (Chengdu Hanova BioSciences Co., Ltd, priority 2024, published 2026):

Key:
Format in all cases: in vivo
eggs of Panonychus citri = assay: Effect on hatching of eggs of Panonychus citri, leaf disc method; settings: 1 ppm; for Hatching rate (%), Replicate 1 / Hatching rate (%), Replicate 2 / Hatching rate (%), Replicate 3 / Number of hatched larvae 5 days after insecticide delivery, Replicate 1 / Number of hatched larvae 5 days after insecticide delivery, Replicate 2 / Number of hatched larvae 5 days after insecticide delivery, Replicate 3: Panonychus citri eggs; for Hatching rate (%), Replicate 1 / Hatching rate (%), Replicate 2 / Hatching rate (%), Replicate 3: 5 days after delivery; for Number of hatched larvae 5 days after insecticide delivery, Replicate 1 / Number of hatched larvae 5 days after insecticide delivery, Replicate 2 / Number of hatched larvae 5 days after insecticide delivery, Replicate 3: leaf disc
Method: (§1) • (1) Preparation of leaf discs containing eggs: 20 female adult mites of Tetranychus cinnabarinus were transferred onto leaf discs of Vicia faba with a diameter of 2.0 cm (with wetted filter paper at the bottom), then covered it with a lidded culture dish and cultivated under moisturizing conditions, the adult mites were removed within 36 hours and microscopic examination and counting were performed on leaf discs containing eggs. • (2) Investigation of egg population base: Before pesticide soaking, a microscopic examination was conducted on the egg basic number of each leaf disc, with 2 replicates set for each treatment. • (3) Pesticide soaking treatment: The leaf butterflies loaded with mite eggs were soaked in clear water and sulfite compounds for 10 seconds, respectively, then taken out and cultivated under moisturizing conditions. Each treatment should be repeated for no less than 3 times. • (4) Cultivation and observation: The […] were cultivated under normal conditions. Five days after insecticide delivery, the hatching status of mite eggs was investigated. • Note: The temperature and humidity conditions of the constant temperature and humidity incubator after the treatment should be controlled so as to avoid excessive temperature differences, which may cause generation and dripping of condensate water in the culture dish, resulting in abnormal death of eggs due to soaking in water; it is also necessary to ensure sufficient strong ambient light, without directing irradiating the leaves. • (5) Survey of Results: The experimental materials of each treatment group were regularly hydrated and moisturized, and the hatching of eggs was observed. On the 7th day after insecticide delivery, the number of hatched eggs for each treatment was recorded, and the survey of results was recorded in the original notebook. According to the experimental requirements and characteristics of agents, the survey time can be shortened or extended.
(§2) • 1) Surveying and recording the number of hatched eggs for each treatment. • 2) Photographing and recording whether there was any pesticide damage to the leaf discs of Vicia faba. • 3) Recording the developmental status of experimental mite eggs, behavior status of nymph mites, including abnormal phenomena such as delayed or stopped development of mite eggs, difficulty in breaking hull for nymph mites, or painful struggles after hatching, etc. • (6) Calculation method: Based on the survey data, the prevention and control effect of each treatment was calculated according to the following formula, and the calculation results were kept to two decimal places.
(§3) This test adopted the method in Test Example 1 of technical section, mainly used leaf disc method to explore the effect on hatching of eggs of Panonychus citri by compounds 1-(S,S), 1-(S,R), 1-(R,R), 1-(R,S), 1′-(S,S), 1′-(S,R), 1′-(R,R), 1′-(R,S), compound 1, compound 1′, S-10, R-10, S-10′, R-10′, compound 10, compound 10′, compound 19-(S,S), 19-(S,R), 19-(R,R), 19-(R,S), 19′-(S,S), 19′-(S,R), 19′-(R,R), 19′-(R,S), compound 19, and compound 19′. The concentration of all compounds was 1 ppm.

[1] = test system: eggs of Tetranychus urticae; assay: Effect on hatching of eggs of Tetranychus urticae, leaf disc method; settings: 5 ppm; for Hatching rate (%): 5 days after insecticide delivery
Method: as §1, §2
as §3, with “explore the inhibitory effect on” for “explore the effect on”, “eggs of Tetranychus urticae by compounds” for “eggs of Panonychus citri by compounds”, “compounds was 5 ppm.” for “compounds was 1 ppm.”

[2] = test system: eggs of Spodoptera litura; assay: Effect on hatching of eggs of Spodoptera litura, egg piece soaking; settings: 500 ppm; for Hatching rate (%), Replicate 1 / Hatching rate (%), Replicate 2 / Hatching rate (%), Replicate 3 / Number of unhatched larvae 4 days after insecticide delivery, Replicate 1 / Number of unhatched larvae 4 days after insecticide delivery, Replicate 2 / Number of unhatched larvae 4 days after insecticide delivery, Replicate 3: Spodoptera litura eggs; for Hatching rate (%), Replicate 1 / Hatching rate (%), Replicate 2 / Hatching rate (%), Replicate 3: 4 days after delivery; for Number of unhatched larvae 4 days after insecticide delivery, Replicate 1 / Number of unhatched larvae 4 days after insecticide delivery, Replicate 2 / Number of unhatched larvae 4 days after insecticide delivery, Replicate 3: soaked 10 minutes
Method: • (1) Preparation of paper containing eggs: the egg mass was cut into small pieces, each containing about 60 eggs, soaked in a preformulated test agent for 10 minutes together with paper for egg raising (concentration of each compound of 500 ppm). After taken out, absorbent paper was used to absorb the excess solution adhered to the paper for egg raising and egg pieces. (2) Cultivation: Each egg piece was separately placed in a glass test tube (5.0 cm in height, 2.5 cm in diameter, the same below), which was sealed with plastic paper punctured with fine holes using insect needles and cultivated in an artificial climate chamber at a temperature of (24±1° C.), a relative humidity of (80±10) %, and a photoperiod of L:D=12:12. When the eggs developed until they were about to hatch, castor leaves with a diameter of about 3 cm were added for feeding the hatching larvae; • (3) Observation: the number of hatched and unhatched eggs per egg piece was checked and recorded, and the hatching rate of eggs was calculated according to the formula. Each treatment was repeated for 3 times. • (4) Survey of results: The experimental materials of each treatment group were regularly hydrated and moisturized, and the hatching of eggs was observed. On the 4th day after insecticide delivery, the number of hatched eggs for each treatment was recorded, and the survey of results was recorded in the original notebook. According to the experimental requirements and characteristics of agents, the survey time can be shortened or extended. • 1) Surveying and recording the number of hatched eggs for each treatment. • 2) Recording the developmental status of experimental eggs of Spodoptera litura, behavior status of nymphs, including abnormal phenomena such as delayed or stopped development of eggs of Spodoptera litura, etc. • (5) Calculation method: Based on the survey data, the prevention and control effect of each treatment was calculated according to the following formula, and the calculation results were kept to two decimal places. [formula] [formula]

eggs of Thrips = assay: Effect on hatching of eggs of Thrips, leaf disc method; settings: 100 ppm; for Hatching rate (%): 5 days after insecticide delivery
Method: as §1, §2
This test adopted the method in Test Example 1 of technical section, mainly used leaf disc method to explore the inhibitory effect on hatching of eggs of Thrips by 1-(S,S), 1-(S,R), 1-(R,R), 1-(R,S), 1′-(S,S), 1′-(S,R), 1′-(R,R), 1′-(R,S), compound 1, compound 1′, S-10, R-10, S-10′, R-10′, compound 10, compound 10′, compound 19-(S,S), 19-(S,R), 19-(R,R), 19-(R,S), 19′-(S,S), 19′-(S,R), 19′-(R,R), 19′-(R,S), compound 19, and compound 19′. The concentration of all compounds was 100 ppm.

[3] = Replicate 1, listed as 1′-(S, S)
[4] = Replicate 2, listed as 1′-(S, S)
[5] = Replicate 3, listed as 1′-(S, S)
[6] = Replicate 1, listed as 1′-(R, S)
[7] = Replicate 2, listed as 1′-(R, S)
[8] = Replicate 3, listed as 1′-(R, S)

## CC(COc1ccc(Cl)cc1Cl)OS(=O)OCCF [1′-(S,S)]
Eggs of Panonychus citri; listed as 1′-(S, S)
  Hatching rate (%), Replicate 1: 14.73%
  Hatching rate (%), Replicate 2: 16.05%
  Hatching rate (%), Replicate 3: 16.67%
  Number of hatched larvae 5 days after insecticide delivery, Replicate 1: 19
  Number of hatched larvae 5 days after insecticide delivery, Replicate 2: 13
  Number of hatched larvae 5 days after insecticide delivery, Replicate 3: 18
[1]; [3]
  Hatching rate (%): 20.63%
  Number of hatched larvae 5 days after insecticide delivery: 13
[1]; [4]
  Hatching rate (%): 16.22%
  Number of hatched larvae 5 days after insecticide delivery: 12
[2]; listed as 1′-(S, S)
  Hatching rate (%), Replicate 1: 64.52%
  Hatching rate (%), Replicate 2: 63.79%
  Hatching rate (%), Replicate 3: 66.07%
  Number of unhatched larvae 4 days after insecticide delivery, Replicate 1: 22
  Number of unhatched larvae 4 days after insecticide delivery, Replicate 2: 21
  Number of unhatched larvae 4 days after insecticide delivery, Replicate 3: 19
Eggs of Thrips; [3]
  Hatching rate (%): 14.10%
  Number of hatched larvae 5 days after insecticide delivery: 11
Eggs of Thrips; [4]
  Hatching rate (%): 14.63%
  Number of hatched larvae 5 days after insecticide delivery: 18
Eggs of Thrips; [5]
  Hatching rate (%): 16.04%
  Number of hatched larvae 5 days after insecticide delivery: 17

## CC(COc1ccc(Cl)cc1Cl)OS(=O)OCCF [1′-(R,S)]
Eggs of Panonychus citri
  inhibitory effect on the hatching of eggs of Panonychus citri (in words): good inhibitory effects
Eggs of Panonychus citri; listed as 1′-(R, S)
  Hatching rate (%), Replicate 1: 0.00%
  Hatching rate (%), Replicate 2: 0.00%
  Hatching rate (%), Replicate 3: 0.00%
  Number of hatched larvae 5 days after insecticide delivery, Replicate 1: 0
  Number of hatched larvae 5 days after insecticide delivery, Replicate 2: 0
  Number of hatched larvae 5 days after insecticide delivery, Replicate 3: 0
[1]
  inhibitory activity on the hatching of eggs of Tetranychus urticae (in words): strong inhibitory activities
[1]; [6]
  Hatching rate (%): 0.00%
  Number of hatched larvae 5 days after insecticide delivery: 0
[1]; [7]
  Hatching rate (%): 0.00%
  Number of hatched larvae 5 days after insecticide delivery: 0
[2]
  inhibitory activity on the hatching of eggs of Spodoptera litura (in words): good inhibitory activities
[2]; listed as 1′-(R, S)
  Hatching rate (%), Replicate 1: 28.33%
  Hatching rate (%), Replicate 2: 25.00%
  Hatching rate (%), Replicate 3: 20.34%
  Number of unhatched larvae 4 days after insecticide delivery, Replicate 1: 43
  Number of unhatched larvae 4 days after insecticide delivery, Replicate 2: 48
  Number of unhatched larvae 4 days after insecticide delivery, Replicate 3: 47
Eggs of Thrips
  inhibitory activity on the hatching of eggs of Thrips (in words): strong inhibitory activities
Eggs of Thrips; [6]
  Hatching rate (%): 0.00%
  Number of hatched larvae 5 days after insecticide delivery: 0
Eggs of Thrips; [7]
  Hatching rate (%): 0.00%
  Number of hatched larvae 5 days after insecticide delivery: 0
Eggs of Thrips; [8]
  Hatching rate (%): 0.00%
  Number of hatched larvae 5 days after insecticide delivery: 0
